Read-outs that look alike come from different tables or passages of the source.
Tests used:
human CB2 receptors = target: T1, human CB2 receptors (Homo sapiens, UniProt P34972); assay: cAMP assay in HEK-293 cells, hCB2 agonist; format: cell-based
T1 construct: (cDNA clone) CNR0200000
Procedure, shortened: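 HEK-293 cells stably expressing human CB2, suspended at 1,500,000 cells/mL in HBSS with 10 mM HEPES and 0.1% fatty-acid-free BSA, exposed to test compound plus forskolin (90 uM in the 3× compound solution) for 30 min at 37° C.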

human CB1 (hCB1) = target: T2, human CB1 (hCB1) (Homo sapiens, UniProt P21554); assay: 35S GTPγS binding assay, hCB1 agonist; format: biochemical; settings: GTPγS agonist, HEK-293 membranes; read-out: hCB1 EC50 (GTPyS ag)
T2 construct: (cDNA clone) CNR01L000
Source text: cDNA expression clones for human CB1 (hCB1, Genbank Accession No. AY225225) and human CB2 (hCB2, Genbank Accession No. AY242132) expressed in vector pcDNA3.1+ were purchased from UMR cDNA Resource Center, Rolla, Mo. (Clone ID CNR01L000 for hCB1; CNR0200000 for hCB2).
Stable, HEK-293-derived cell lines that recombinantly express hCBI or hCB2 were established. In brief, the clone hCB1 (CNR IL) or hCB2 (CNR2) was transfected into human embryonic kidney cells (HEK-293) using Lipofectamine 2000 (Gibco, Cat#11668-019) according to the manufacturer's protocol. Transfected clones were isolated by single colony purification and clones were screened for receptor expression using a whole cell, ^3H—CP 55,940 radioligand binding assay. HEK-293 stable cells were maintained in Dulbecco's modified Eagles medium (DMEM) containing 10% fetal bovine serum, 2 mM L-glutamine and 0.5 mg/mL G-418.
Membranes were isolated from transfected cells as follows. Monolayers of cultured cells were washed twice with phosphate-buffered saline (PBS). Cells were scraped into 20 mM HEPES, pH 7.4, 10 mM EDTA containing complete cocktail protease inhibitors (Roche, Catalog #11 697 498 001) and were homogenized by an electric-powered mechanical probe homogenizer (Omni GLH; probe G7-195S) for 40 seconds at 7000 rpm. Homogenates were centrifuged 10 minutes at 1000×g at 4° C. The supernatant was collected and was centrifuged for 1 hour at 40,000×g. The supernatant was then decanted and the resulting pellet was re-suspended in 20 mM HEPES, pH 7.4, 5 mM MgCl2, 1 mM EDTA, 10% sucrose with complete cocktail protease inhibitors. Protein concentration of membrane suspensions were measured by Bradford Protein Assay using bovine serum albumin as the standard (BioRad catalog #500-0006). Protein concentrations of membrane suspensions were adjusted with the final buffer in the range of 5 to 10 mg/mL and were stored at −80° C. until further use.
Functional assays which monitor G-protein coupled receptor or downstream cellular responses can be used to characterize potential CB1 receptor and/or CB2 receptor agonist or antagonist activities. Direct activation (or inhibition of activation) can be monitored using a GTPγS assay (membrane-based assay) or cAMP assay (whole cell-based assay).
^35S GTPγS binding assays were performed by incubating recombinant cell membranes prepared above (5 μg) in the presence of scintillation proximity assay beads (SPA beads, Catalog #RPNQ0252 GE Healthcare, Buckinghamshire, England) in GTPγS binding buffer [50 mM HEPES (pH 7.4), 100 mM NaCl, 5 mM MgCl2, 0.001% saponin (Sigma catalog #S4521)] supplemented with 20 uM GDP (Sigma catalog #G7127) in the presence or absence of test compound. The reaction was carried out in 96-well microplates with 0.1 nM [^35S]GTPγS (specific activity=1250 Ci/mmol; Perkin Elmer catalog #NEG030X250UC) in a final volume of 100 uL. After a 90 min room temperature incubation, the reaction was analyzed using a scintillation counter (Perkin Elmer Microbeta instrument). Binding data were analyzed using GraphPad Prism.

human CB2 (hCB2) = target: T3, human CB2 (hCB2) (Homo sapiens, UniProt P34972); assay: 35S GTPγS binding assay, hCB2 agonist; format: biochemical
T3 construct: (cDNA clone) CNR0200000
Procedure, shortened: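 Membranes (5 μg) from cells transfected with hCB2 cDNA in pcDNA3.1+ incubated with SPA beads, 0.1 nM [35S]GTPγS and 20 uM GDP in 50 mM HEPES pH 7.4, 100 mM NaCl, 5 mM MgCl2, 0.001% saponin, ± test compound. Incubation 90 min at room temperature; bound label read by scintillation counting.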

[1] = target: T4, recombinant human cannabinoid receptor CB1 (Homo sapiens, UniProt P21554); assay: Cannabinoid receptor radioligand binding assay, [3H]-CP 55,940 displacement, hCB1
T4 construct: (cDNA clone) CNR01L000
Procedure, shortened: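 Membranes from HEK-293 cells stably expressing human CB1, 2-10 μg protein, incubated 90 min at room temperature with 0.5 nM [3H]-CP 55,940 in Tris-HCl pH 7.5, MgCl2, EDTA and 0.1% fatty-acid-free BSA. Bound radioactivity counted after rapid filtration; nonspecific binding defined with 1 μM unlabeled CP 55,940.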

human CB1 receptors = target: T5, human CB1 receptors (Homo sapiens, UniProt P21554); assay: cAMP assay in HEK-293 cells, hCB1 agonist; format: cell-based; settings: inhibition of forskolin-stimulated cAMP, HEK-293 cells
T5 construct: (cDNA clone) CNR01L000
Procedure, shortened: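 Stable hCB1 HEK-293 cells suspended in HBSS with 10 mM HEPES and 0.1% fatty acid-free BSA, incubated 30 min at 37° C. with compound plus forskolin (90 uM in the 3× compound solution). Lysed cAMP measured by enzyme-fragment kit; EC50 = 50% inhibition of forskolin-stimulated cAMP (forskolin maximum = 100%), sigmoidal fit.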

[2] = target: T6, recombinant human cannabinoid receptor CB2 (Homo sapiens, UniProt P34972); assay: Cannabinoid receptor radioligand binding assay, [3H]-CP 55,940 displacement, hCB2
T6 construct: (cDNA clone) CNR0200000
Procedure, shortened: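 Membranes from hCB2-transfected cells, prepared by 1000×g then 40,000×g centrifugation, resuspended in 20 mM HEPES pH 7.4, 5 mM MgCl2, 1 mM EDTA, 10% sucrose.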

[3] = test system: PBQ-induced writhing in the mouse; assay: Phenylbenzoquinone-induced (PBQ) writhing model
[4] = inhibition of forskolin-stimulated cAMP, HEK-293 cells, read-out: hCB2 EC50 (cAMP ag)
[5] = GTPγS agonist, HEK-293 membranes, read-out: hCB2 EC50 (GTPyS ag)
[6] = inhibition of forskolin-stimulated cAMP, HEK-293 cells

T3 sequence (P34972 whole entry): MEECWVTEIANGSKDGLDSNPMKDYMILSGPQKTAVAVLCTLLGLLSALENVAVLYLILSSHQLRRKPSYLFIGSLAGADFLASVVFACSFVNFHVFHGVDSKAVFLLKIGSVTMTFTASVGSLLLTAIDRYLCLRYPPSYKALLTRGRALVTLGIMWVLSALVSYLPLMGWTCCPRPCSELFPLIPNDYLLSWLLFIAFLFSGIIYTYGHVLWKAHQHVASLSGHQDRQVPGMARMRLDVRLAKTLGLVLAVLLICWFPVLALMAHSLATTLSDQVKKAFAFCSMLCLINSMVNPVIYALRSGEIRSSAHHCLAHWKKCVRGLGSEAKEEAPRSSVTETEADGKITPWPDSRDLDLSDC
T1 sequence (P34972 whole entry): as above
T5 sequence (P21554 whole entry): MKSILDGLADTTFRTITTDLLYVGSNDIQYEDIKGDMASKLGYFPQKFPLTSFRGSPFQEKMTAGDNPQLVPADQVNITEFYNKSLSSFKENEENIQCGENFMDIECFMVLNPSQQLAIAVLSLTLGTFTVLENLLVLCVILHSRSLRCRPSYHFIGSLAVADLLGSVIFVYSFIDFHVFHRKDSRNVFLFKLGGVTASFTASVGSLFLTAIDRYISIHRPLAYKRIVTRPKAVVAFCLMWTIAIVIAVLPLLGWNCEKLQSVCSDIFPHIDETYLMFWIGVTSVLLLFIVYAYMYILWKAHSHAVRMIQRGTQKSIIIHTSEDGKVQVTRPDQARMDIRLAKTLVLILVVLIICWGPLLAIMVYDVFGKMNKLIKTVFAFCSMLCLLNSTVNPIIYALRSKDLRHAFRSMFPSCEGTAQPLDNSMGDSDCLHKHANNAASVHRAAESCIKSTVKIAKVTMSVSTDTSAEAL
T2 sequence (P21554 whole entry): as above
T4 sequence (P21554 whole entry): as above
T6 sequence (P34972 whole entry): as the sequence (P34972 whole entry) above

SMILES	EC50 (human CB1 (hCB1)) [nM]	IC50 [1] [nM]	EC50 (human CB2 receptors) [nM]	EC50 (human CB2 (hCB2)) [nM]	hCB1 EC50 (cAMP ag, nM) (human CB1 receptors)	also measured
COc1ccc(C(=O)c2cc3cc(C)n(CCN4CCC(F)(F)CC4)c3s2)cn1 [Compound 152, (6-(2-(4,4-difluoropiperidin-1-yl)ethyl)-5-methyl-6H-thieno[2,3-b]pyrrol-2-yl)(6-methoxypyridin-3-yl)methanone]	1000 to 10000	< 100				EC50 (human CB2 receptors; [4]): < 100 nM; EC50 (human CB2 (hCB2); [5]): < 100 nM
COc1ccc(C(=O)c2cc3cc(C)n(CCCNS(=O)(=O)C(F)(F)F)c3s2)cc1 [Compound 154, 1,1,1-trifluoro-N-(3-(2-(4-methoxybenzoyl)-5-methyl-6H-thieno[2,3-b]pyrrol-6-yl)propyl)methanesulfonamide]	> 10000	158	100 to 1000	1000 to 10000		
COc1ccc(C(=O)c2cc3cc(C)n(CCNC4CCOCC4)c3s2)cn1 [Compound 163, (6-methoxypyridin-3-yl)(5-methyl-6-(2-((tetrahydro-2H-pyran-4-yl)amino)ethyl)-6H-thieno[2,3-b]pyrrol-2-yl)methanone]	> 10000		100 to 1000	1000 to 10000	NS (NS means “Not Significant,” which means less than 30% agonist activity when compared to the positive control.)	
COc1ccc(C(=O)c2cc3cc(C)n(CC(=O)O)c3s2)cn1 [Compound 166, 2-(2-(6-methoxynicotinoyl)-5-methyl-6H-thieno[2,3-b]pyrrol-6-yl)acetic acid]	> 10000				NS (NS means “Not Significant,” which means less than 30% agonist activity when compared to the positive control.)	hCB2 EC50 (cAMP ag, nM) (human CB2 receptors; [6]): NS (NS means “Not Significant,” which means less than 30% agonist activity when compared to the positive control.); EC50 (human CB2 (hCB2); [5]): > 10000 nM
COc1ccc(C(=O)c2cc3cc(C)n(CCN4CC5CC4CO5)c3s2)cn1 (centres unmarked) [Compound 169, (6-(2-(2-oxa-5-azabicyclo[2.2.1]heptan-5-yl)ethyl)-5-methyl-6H-thieno[2,3-b]pyrrol-2-yl)(6-methoxypyridin-3-yl)methanone]	> 10000	100 to 1000			NS (NS means “Not Significant,” which means less than 30% agonist activity when compared to the positive control.)	EC50 (human CB2 (hCB2); [5]): 1000 to 10000 nM
COc1ccc(C(=O)c2cc3cc(C)n(CC4CCNCC4)c3s2)cn1 [Compound 172, (6-methoxypyridin-3-yl)(5-methyl-6-(piperidin-4-ylmethyl)-6H-thieno[2,3-b]pyrrol-2-yl)methanone]	> 10000				NS (NS means “Not Significant,” which means less than 30% agonist activity when compared to the positive control.)	hCB2 EC50 (cAMP ag, nM) (human CB2 receptors; [6]): NS (NS means “Not Significant,” which means less than 30% agonist activity when compared to the positive control.); EC50 (human CB2 (hCB2); [5]): > 10000 nM
COc1ccc(C(=O)c2cc3cc(C)n(CC4CCCCO4)c3s2)cn1 (centres unmarked) [Compound 173, (6-methoxypyridin-3-yl)(5-methyl-6-((tetrahydro-2H-pyran-2-yl)methyl)-6H-thieno[2,3-b]pyrrol-2-yl)methanone]	1000 to 10000	< 100	< 100	100 to 1000		
COc1ccc(C(=O)c2cc3cc(C)n(CC4CCSCC4)c3s2)cn1 [Compound 175, (6-methoxypyridin-3-yl)(5-methyl-6-((tetrahydro-2H-thiopyran-4-yl)methyl)-6H-thieno[2,3-b]pyrrol-2-yl)methanone]	100 to 1000	< 100	< 100	< 100		IC50 [2]: 1000 to 10000 nM
COc1ccc(C(=O)c2cc3cc(C)n(CC(=O)O)c3s2)c(F)c1 [Compound 176, 2-(2-(2-fluoro-4-methoxybenzoyl)-5-methyl-6H-thieno[2,3-b]pyrrol-6-yl)acetic acid]	> 10000				NS (NS means “Not Significant,” which means less than 30% agonist activity when compared to the positive control.)	EC50 (human CB2 receptors; [4]): < 100 nM; EC50 (human CB2 (hCB2); [5]): > 10000 nM
COc1ccc(C(=O)c2cc3cc(C)n(CC4COCCO4)c3s2)cn1 (centres unmarked) [Compound 177, (6((1,4-dioxan-2-yl)methyl)-5-methyl-6H-thieno[2,3-b]pyrrol-2-yl)(6-methoxypyridin-3-yl)methanone]	> 10000		1000 to 10000	1000 to 10000	NS (NS means “Not Significant,” which means less than 30% agonist activity when compared to the positive control.)	
COc1ccc(C(=O)c2cc3cc(C)n(CCN4CCCC4COCc4ccccc4)c3s2)cn1 (centres unmarked) [Compound 178, (6-(2-(2-((benzyloxy)methyl)pyrrolidin-1-yl)ethyl)-5-methyl-6H-thieno[2,3-b]pyrrol-2-yl)(6-methoxypyridin-3-yl)methanone]	> 10000			> 10000	NS (NS means “Not Significant,” which means less than 30% agonist activity when compared to the positive control.)	hCB2 EC50 (cAMP ag, nM) (human CB2 receptors; [6]): NS (NS means “Not Significant,” which means less than 30% agonist activity when compared to the positive control.)
COc1cc(F)c(C(=O)c2cc3cc(C)n(CC4CCOCC4)c3s2)c(F)c1 [Compound 180, (2,6-difluoro-4-methoxyphenyl)(5-methyl-6-((tetrahydro-2H-pyran-4-yl)methyl)-6H-thieno[2,3-b]pyrrol-2-yl)methanone]	1000 to 10000	100 to 1000	< 100	< 100		
Cc1cc2cc(C(=O)c3cccc(Cl)c3Cl)sc2n1CCN1CCOCC1 [Compound I-1]						Number of Writhes ([3]; Dose 30, IP): 0.4 ± 0.31; Number of Writhes ([3]; Dose 30, PO): 7.5 ± 1.91
Cc1cc2cc(C(=O)c3ccc(Cl)cc3)sc2n1CCN1CCOCC1 [Compound I-6]						Number of Writhes ([3]; Dose 30, PO): 3.7 ± 0.7
Cc1cc2cc(C(=O)c3ccc(Cl)cc3Cl)sc2n1CCN1CCOCC1 [Compound I-10]						Number of Writhes ([3]; Dose 30, PO): 3.7 ± 0.7
Cc1cc2cc(C(=O)c3ccccn3)sc2n1CCN1CCOCC1 [Compound I-16]						Number of Writhes ([3]; Dose 30, IP): 10.0 ± 2.76
CCS(=O)(=O)n1c(C)cc2cc(C(=O)c3cccc(Cl)c3Cl)sc21 [Compound I-25]						Number of Writhes ([3]; Dose 30, IP): 5.9 ± 2.46
Cc1cc2cc(C(=O)c3ccncn3)sc2n1CCN1CCOCC1 [Compound I-34]						Number of Writhes ([3]; Dose 30, IP): 3.4 ± 0.97
